# Measured values taken from patent US8080529B2, “Macrolides with anti-inflammatory activity” (Glaxo Group Limited, priority 2005, dated 2011).
# Like-named read-outs stand apart in the source and are kept apart here.
# Key:
# IL-8 = assay: Inhibition of IL-8 production by stimulated human peripheral blood leukocytes in vitro; assay type: cell-based; settings: Homo sapiens, Leukocyte, read-out: Percentage of inhibition of IL-8 production
# Summary of the method: (§1)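 Values are percentage inhibition of cytokine release versus stimulated leukocytes lacking compound. Human blood leukocytes received 50 μM or 10 μM compound for 2 h before overnight LPS, PMA or zymosan stimulation, and supernatants were assayed by ELISA.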
# IL-1α = assay: Inhibition of IL-1 production by stimulated human peripheral blood leukocytes in vitro; assay type: cell-based; settings: Homo sapiens, Leukocyte, read-out: Percentage of inhibition of IL-1α production
# A549 = assay: Cytotoxicity assay (MTT), A549 cell line; assay type: cell-based; settings: 24 h
# Summary of the method: (§2)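 Viability was read as MTT-formazan absorbance at 490 nm after 0.5-2 h with reagent. This followed 24 h compound exposure (50 μM, 12.5 μM) at 37° C in RPM medium. Result expressed as OD490 treated over untreated cells ×100.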
# TNF-α [1] = assay: Inhibition of TNF-α production by stimulated human peripheral blood leukocytes in vitro; assay type: cell-based; settings: Homo sapiens, Leukocyte, read-out: Percentage of inhibition of TNF-α production
# Summary of the method: as §1
# IL-6 = assay: Inhibition of IL-6 production by stimulated human peripheral blood leukocytes in vitro; assay type: cell-based; settings: Homo sapiens, Leukocyte, read-out: Percentage of inhibition of IL-6 production
# Summary of the method: as §1
# TNF-α [2] = assay: Lipopolysaccharide induced TNF-α production in Balb/cJ mice; assay type: in vivo; settings: Mus musculus, ip, 1.5 h; 10 mg/kg intraperitoneally, 30 min before LPS; 90 min after LPS; read-out: % inhibition of TNF-α production (plasma)
# [3] = tested on: human peripheral blood mononuclear cells (PBMC); assay: Effects on human T-cell proliferation in vitro (3H-thymidine incorporation); assay type: cell-based; settings: Homo sapiens, PBMC, read-out: Percentage of inhibition of proliferation of stimulated PBMC
# Summary of the method: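 Proliferation of human peripheral blood mononuclear cells (PBMC) was assessed in the presence of test compounds. During the final 18 h of culture each well received 1 μCi of ^3H-thymidine. Cells were then collected onto a 96-well filter with a multiple cell harvester, and ^3H-thymidine incorporation was counted on a TopCount NXT to give percentage inhibition of proliferation.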
# Hep G2 = assay: Cytotoxicity assay (MTT), Hep G2 cell line; assay type: cell-based; settings: 24 h
# Summary of the method: as §2
Structure (SMILES),inhibition at 10 µM (IL-8; LPS-stimulated PBL),inhibition at 10 µM (IL-8; PMA-stimulated PBL),inhibition at 10 µM (IL-8; zymosan-stimulated PBL),inhibition at 50 µM (IL-8; LPS-stimulated PBL),inhibition at 50 µM (IL-8; PMA-stimulated PBL),inhibition at 50 µM (IL-8; zymosan-stimulated PBL),inhibition at 10 µM (IL-1α; LPS-stimulated PBL),inhibition at 10 µM (IL-1α; PMA-stimulated PBL),inhibition at 10 µM (IL-1α; zymosan-stimulated PBL),inhibition at 50 µM (IL-1α; LPS-stimulated PBL),inhibition at 50 µM (IL-1α; PMA-stimulated PBL),inhibition at 50 µM (IL-1α; zymosan-stimulated PBL),Percentage of inhibition of cell growth (A549; 12.5 μM),Percentage of inhibition of cell growth (A549; 50 μM),inhibition at 10 µM (TNF-α [1]; LPS-stimulated PBL),inhibition at 10 µM (TNF-α [1]; PMA-stimulated PBL),inhibition at 10 µM (TNF-α [1]; zymosan-stimulated PBL),inhibition at 50 µM (TNF-α [1]; LPS-stimulated PBL),inhibition at 50 µM (TNF-α [1]; PMA-stimulated PBL),inhibition at 50 µM (TNF-α [1]; zymosan-stimulated PBL),other results
"CC[C@H]1OC(=O)[C@H](C)[C@@H](O[C@H]2C[C@@](C)(OC)[C@@H](OC(=O)CCN(C)C)[C@H](C)O2)[C@H](C)[C@@H](O[C@@H]2O[C@H](C)C[C@H](N(C)C)[C@H]2O)[C@](C)(OC)C[C@@H](C)C(=O)N[C@H](C)[C@@H](O)[C@]1(C)O [Example 12, 4″-O-(3-dimethylamino-propionyl)-6-O-methyl-9a-aza-9a-homoerythromycin A]",7%,0%,2%,72%,3%,9%,43%,45%,88%,95%,90%,100%,8%,4%,23%,49%,77%,92%,97%,97%,inhibition at 10 µM (IL-6; LPS-stimulated PBL): 16%; inhibition at 10 µM (IL-6; PMA-stimulated PBL): 32%; inhibition at 10 µM (IL-6; zymosan-stimulated PBL): 67%; inhibition at 50 µM (IL-6; LPS-stimulated PBL): 81%; inhibition at 50 µM (IL-6; PMA-stimulated PBL): 67%; inhibition at 50 µM (IL-6; zymosan-stimulated PBL): 91%; inhibition in vivo at 10 mg/kg (TNF-α [2]): 69%; inhibition at 10 µM ([3]; PHA): 33%; inhibition at 50 µM ([3]; PHA): 99%; inhibition at 10 µM ([3]; PMA + iono.): 29%; inhibition at 50 µM ([3]; PMA + iono.): 96%; Percentage of inhibition of cell growth (Hep G2; 12.5 μM): 0%; Percentage of inhibition of cell growth (Hep G2; 50 μM): 0%
CC[C@H]1OC(=O)[C@H](C)[C@@H](O[C@H]2C[C@@](C)(OC)[C@@H](OC(=O)CCN(C)CCO)[C@H](C)O2)[C@H](C)[C@@H](O[C@@H]2O[C@H](C)C[C@H](N(C)C)[C@H]2O)[C@](C)(OC)C[C@@H](C)C(=O)N[C@H](C)[C@@H](O)[C@]1(C)O [Example 15],38%,0%,42%,94%,95%,91%,80%,80%,96%,98%,96%,99%,0%,5%,61%,82%,93%,99%,96%,100%,inhibition at 10 µM (IL-6; LPS-stimulated PBL): 39%; inhibition at 10 µM (IL-6; PMA-stimulated PBL): 50%; inhibition at 10 µM (IL-6; zymosan-stimulated PBL): 76%; inhibition at 50 µM (IL-6; LPS-stimulated PBL): 93%; inhibition at 50 µM (IL-6; PMA-stimulated PBL): 95%; inhibition at 50 µM (IL-6; zymosan-stimulated PBL): 96%; inhibition in vivo at 10 mg/kg (TNF-α [2]): 100%; inhibition at 10 µM ([3]; PHA): 68%; inhibition at 50 µM ([3]; PHA): 99%; inhibition at 10 µM ([3]; PMA + iono.): 53%; inhibition at 50 µM ([3]; PMA + iono.): 98%; Percentage of inhibition of cell growth (Hep G2; 12.5 μM): 3%; Percentage of inhibition of cell growth (Hep G2; 50 μM): 0%
CC[C@H]1OC(=O)[C@H](C)[C@@H](O[C@H]2C[C@@](C)(OC)[C@@H](OC(=O)CCN3CCN(CCN(C)C)CC3)[C@H](C)O2)[C@H](C)[C@@H](O[C@@H]2O[C@H](C)C[C@H](N(C)C)[C@H]2O)[C@](C)(OC)C[C@@H](C)C(=O)N[C@H](C)[C@@H](O)[C@]1(C)O [Example 17],4%,21%,20%,6%,13%,13%,25%,55%,58%,44%,75%,90%,5%,2%,13%,46%,30%,21%,67%,46%,inhibition at 10 µM (IL-6; LPS-stimulated PBL): 9%; inhibition at 10 µM (IL-6; PMA-stimulated PBL): 37%; inhibition at 10 µM (IL-6; zymosan-stimulated PBL): 33%; inhibition at 50 µM (IL-6; LPS-stimulated PBL): 14%; inhibition at 50 µM (IL-6; PMA-stimulated PBL): 55%; inhibition at 50 µM (IL-6; zymosan-stimulated PBL): 60%; inhibition in vivo at 10 mg/kg (TNF-α [2]): 84%; inhibition at 10 µM ([3]; PHA): 0%; inhibition at 50 µM ([3]; PHA): 70%; inhibition at 10 µM ([3]; PMA + iono.): 3%; inhibition at 50 µM ([3]; PMA + iono.): 49%; Percentage of inhibition of cell growth (Hep G2; 12.5 μM): 5%; Percentage of inhibition of cell growth (Hep G2; 50 μM): 2%
CC[C@H]1OC(=O)[C@H](C)[C@@H](O[C@H]2C[C@@](C)(OC)[C@@H](OC(=O)CCN(C)CCN(CC)CC)[C@H](C)O2)[C@H](C)[C@@H](O[C@@H]2O[C@H](C)C[C@H](N(C)C)[C@H]2O)[C@](C)(OC)C[C@@H](C)C(=O)N[C@H](C)[C@@H](O)[C@]1(C)O [Example 21],0%,6%,0%,4%,23%,13%,14%,31%,58%,54%,69%,86%,5%,4%,0%,8%,5%,10%,75%,39%,inhibition at 10 µM (IL-6; LPS-stimulated PBL): 1%; inhibition at 10 µM (IL-6; PMA-stimulated PBL): 17%; inhibition at 10 µM (IL-6; zymosan-stimulated PBL): 22%; inhibition at 50 µM (IL-6; LPS-stimulated PBL): 22%; inhibition at 50 µM (IL-6; PMA-stimulated PBL): 63%; inhibition at 50 µM (IL-6; zymosan-stimulated PBL): 50%; inhibition in vivo at 10 mg/kg (TNF-α [2]): 61%; inhibition at 10 µM ([3]; PHA): 0%; inhibition at 50 µM ([3]; PHA): 80%; inhibition at 10 µM ([3]; PMA + iono.): 0%; inhibition at 50 µM ([3]; PMA + iono.): 74%; Percentage of inhibition of cell growth (Hep G2; 12.5 μM): 8%; Percentage of inhibition of cell growth (Hep G2; 50 μM): 4%
